Assay results: patent US20090297571A1, “ANTIFUNGAL WALLBOARDS AND BUILDING MATERIALS AND METHODS FOR THE PRODUCTION THEREOF” (SYNGENTA CROP PROTECTION, INC., priority 2004, published 2009)
In brackets after ≈: the same amount, converted by molar mass. Several values for one entry are separate records, joined by “and”; a condition that tells them apart may be missing. Equal values may be shown once. Read-outs that look alike come from different tables or passages of the source.

Experiments:
Type in all cases: cell-based
Aureobasidium pullulans [1] = experiment: Synergy testing of 2-way mixtures, 24 well plates; settings: A. pullulans
Experimental: (§1) For synergism testing of the 2-way mixtures 100 ul of each fungicide were filled into the 24 well plates (8 different rates) and 800 ul of 0.3% PDA media containing the spore suspension was added (see above). Different ratios of the 2 fungicide rates were tested at the same time.
(§2) Alternaria tenuissima, Penicillium citrinum, Stachybotrys chartarum, Aspergillus niger and Aureobasidium pullulans were separately cultivated on PDA media to […] sporulation. Spore suspensions were produced for each fungi.
(§3) For the mixtures of different fungicides the synergism was calculated based on the Colby equation, which is described below: […]
(§4) A synergistic effect exists whenever the action of the active ingredient combination of the compound of formula I and one or more compounds of formula II is greater than the sum of the actions of the active ingredients applied individually.
(§5) The fungicidal action to be expected, We, for a given combination of two fungicides can be calculated as follows (see COLBY, S. R. “Calculating synergistic and antagonistic response of herbicide combinations”. Weeds 15, pages 20-22; 1967):
(§6) If the activity actually observed is greater than the expected value We, there is a synergistic effect.
(§7) All rates below are expressed as mg ai/l (i.e. ppm).

Alternaria tenuissima [2] = experiment: Synergy testing of 2-way mixtures, 24 well plates; settings: A. tenuissima
Experimental: as §1, §2, §3, §4, §5, §6, §7

Aspergillus niger [3] = experiment: Synergy testing of 2-way mixtures, 24 well plates; settings: A. niger
Experimental: as §1, §2, §3, §4, §5, §6, §7

Aureobasidium pullulans [4] = experiment: Liquid culture assay on 24 well plates, solo ai (EC95/MIC); settings: for EC95: 24° C., 3-6 days; for MIC: Aureobasidium pullulans, read-out: MIC Minimal inhibition concentration
Experimental: (§8) The following compounds and formulations were used: […]
as §2
(§9) For solo (i.e. single) ai testing the formulated fungicide (100 ul) was filled into the 24 well plates (8 different rates: 100-0.05 mg aiA final volume as described above) and 100 ul distilled water was added. Afterwards 800 ul of 0.3% PDA media was added to the plate. The spore suspension of the specific fungi was added to this media in advance containing approx. 100.000 spores/ml. The 24 well plates were sealed and incubated at 24° C.
(§10) Dependent on the growth properties of each organisms, the evaluation was done after 3 to 6 days, when the surface of the check well was covered with mycelium. The evaluation was performed by assessing the growth of the fungi related to the check growth. The results are expressed as % activity relative to the check (values of 0-100% growth). Afterwards the results were converted in % growth inhibition. EC95 values and also MIC (minimal inhibition concentration) values were derived for each compound.
(§11) For each solo compound a graph was drawn of percentage inhibition against the concentration of the fungicide. […] Also the concentration that gave the minimum inhibition concentration was derived as the MIC value.

Alternaria tenuissima [5] = experiment: as above; settings: for EC95: 24° C., 3-6 days; for MIC: Alternaria tenuissima, read-out: MIC Minimal inhibition concentration
Experimental: as §8, §2, §9, §10, §11

Penicillium citrinum = experiment: as above; settings: for EC95: 24° C., 3-6 days; for MIC: Penicillium citrinum, read-out: MIC Minimal inhibition concentration
Experimental: as §8, §2, §9, §10, §11

Aspergillus niger [6] = experiment: as above; settings: for EC95: 24° C., 3-6 days; for MIC: Aspergillus niger, read-out: MIC Minimal inhibition concentration
Experimental: as §8, §2, §9, §10, §11

Stachybotrys chartarum [7] = experiment: as above; settings: for EC95: 24° C., 3-6 days; for MIC: Stachybotrys chartarum, read-out: MIC Minimal inhibition concentration
Experimental: as §8, §2, §9, §10, §11

Stachybotrys chartarum [8] = experiment: Synergy testing of 2-way mixtures, 24 well plates; settings: S. chartarum
Experimental: as §1, §2, §3, §4, §5, §6, §7

Mucor indicus = experiment: Agar growth medium petri dish test, visual assessment of fungus-free surface; settings: after 3 days at 25° C., 'no effect' = less than 50% activity at highest dose rate of 100 mg/l
Experimental: (§12) A fungal growth medium was made comprising yeast extract (4 g) agar (8 g), magnesium sulphate (0.2 g), sodium nitrate (2.4 g), potassium chloride (0.2 g), potassium dihydrogen orthophosphate (0.6 g), glycerol (8 ml), distilled water (390 ml). Fungicides as set out in Tables 1 to 4 were added at levels of 5000, 100, 10, 1, 0.1 and 0.01 mg fungicide/litre of growth medium to give […] different growth medium compositions for each fungicide. These growth media containing the fungicide were each put into petri dishes.
(§13) Aspergillus versicolor, Ulocladium chartarum, Mucor indicus and Alternaria alternata were separately propagated on Luria agar to suppress sporulation and mycelial plugs were transferred upside down onto the petri dishes containing the growth medium.
(§14) A visual assessment was made of the surface of the petri dishes. The result recorded was the percentage of the surface that remained free of fungus. This was recorded as percentage activity
(§15) For each fungicide, a graph was drawn of percentage activity against concentration of to fungicide in the growth medium. From this graph, the concentrations of fungicide required to achieve 50%, 80% and 95% activity was estimated. These figures are given in the results tables.

Aspergillus versicolor = experiment: as above; settings: after 19 days at 25° C.
Experimental: as §12, §13, §14, §15

Ulocladium chartarum = experiment: as above; settings: after 13 days at 20° C., 'no effect' = less than 50% activity at highest dose rate of 100 mg/l
Experimental: as §12, §13, §14, §15

Alternaria alternata = experiment: as above
Experimental: as §12, §13, §14, §15

[9] = CCZ + FDL table, rate (PPZ) 1.6 mg ai/l
[10] = CCZ + FDL table, rate (PPZ) 3.1 mg ai/l
[11] = A. pullulans, rates 0-100 mg ai/l, mean values of n = 5
[12] = A. tenuissima, rates 0-100 mg ai/l, mean values of n = 5
[13] = P. citrinum, rates 0-100 mg ai/l, mean values of n = 5
[14] = A. niger, rates 0-100 mg ai/l, mean values of n = 5
[15] = S. chartarum, rates 0-100 mg ai/l, mean values of n = 5

CC(C1CC1)C(O)(Cn1cncn1)c1ccc(Cl)cc1 (stereo not shown) [Cyproconazole]
inh % (PPZ alone) (Aureobasidium pullulans [1]; [9]): 70% | inh % (PPZ alone) (Alternaria tenuissima [2]; CCZ + FDL table, rate (PPZ) 0.8 mg ai/l): 10% | inh % (PPZ alone) (Alternaria tenuissima [2]; [10]): 30% | inh % (PPZ alone) (Aspergillus niger [3]; [9]): 0% | inh % (PPZ alone) (Aspergillus niger [3]; [10]): 0% | EC95 (Aureobasidium pullulans [4]; A. pullulans): 6.5 mg ai/l | MIC (Aureobasidium pullulans [4]; [11]): 12.5 µg/mL (≈ 42.8 µM) | EC95 (Alternaria tenuissima [5]; A. tenuissima): 10.2 mg ai/l | MIC (Alternaria tenuissima [5]; [12]): 12.5 µg/mL (≈ 42.8 µM) | EC95 (Penicillium citrinum; P. citrinum): 50 mg ai/l | MIC (Penicillium citrinum; [13]): 50 µg/mL (≈ 171 µM) | EC95 (Aspergillus niger [6]; A. niger): 10.1 mg ai/l | MIC (Aspergillus niger [6]; [14]): 12.5 µg/mL (≈ 42.8 µM) | EC95 (Stachybotrys chartarum [7]; S. chartarum): >100 mg ai/l | MIC (Stachybotrys chartarum [7]; [15]): > 100 µg/mL

CC1COC(Cn2cncn2)(c2ccc(Oc3ccc(Cl)cc3)cc2Cl)O1 (stereo not shown) [Difenoconazole]
inh % (DFZ alone) (Aureobasidium pullulans [1]; DFZ 0.2 mg ai/l): 70% | inh % (DFZ alone) (Aureobasidium pullulans [1]; DFZ 0.8 mg ai/l): 90% | inh % (DFZ alone) (Aureobasidium pullulans [1]; DFZ 1.6 mg ai/l): 90% | inh % (DFZ alone) (Aureobasidium pullulans [1]; DFZ 3.1 mg ai/l): 70% | inh % (DFZ alone) (Aspergillus niger [3]; DFZ 0.05 mg ai/l): 0% | inh % (DFZ alone) (Aspergillus niger [3]; DFZ 0.2 mg ai/l): 0% | inh % (DFZ alone) (Aspergillus niger [3]; DFZ 0.8 mg ai/l): 10% | inh % (DFZ alone) (Stachybotrys chartarum [8]; DFZ 0.8 mg ai/l): 50% | inh % (DFZ alone) (Stachybotrys chartarum [8]; DFZ 1.6 mg ai/l): 90% | EC95 (Aureobasidium pullulans [4]; A. pullulans): 8 mg ai/l | MIC (Aureobasidium pullulans [4]; [11]): 12.5 µg/mL (≈ 30.8 µM) | EC95 (Alternaria tenuissima [5]; A. tenuissima): 0.7 mg ai/l | MIC (Alternaria tenuissima [5]; [12]): 0.8 µg/mL (≈ 1.97 µM) | EC95 (Penicillium citrinum; P. citrinum): 1.7 mg ai/l | MIC (Penicillium citrinum; [13]): 1.6 µg/mL (≈ 3.94 µM) | EC95 (Aspergillus niger [6]; A. niger): 1.4 mg ai/l | MIC (Aspergillus niger [6]; [14]): 1.6 µg/mL (≈ 3.94 µM) | EC95 (Stachybotrys chartarum [7]; S. chartarum): 2.7 mg ai/l | MIC (Stachybotrys chartarum [7]; [15]): 3.1 µg/mL (≈ 7.63 µM)

N#Cc1c[nH]cc1-c1cccc2c1OC(F)(F)O2 [Fludioxonil]
inh % (FDL alone) (Aureobasidium pullulans [1]; FDL 0.8 mg ai/l): 10% | inh % (FDL alone) (Aureobasidium pullulans [1]; FDL 1.6 mg ai/l, listed as FDL): 0% and 10% | inh % (FDL alone) (Aureobasidium pullulans [1]; FDL 3.1 mg ai/l, listed as FDL): 0% and 10% | inh % (FDL alone) (Aureobasidium pullulans [1]; FDL 12.5 mg ai/l, listed as FDL): 0% and 10% | inh % (FDL alone) (Aureobasidium pullulans [1]; FDL 50 mg ai/l, listed as FDL): 0% and 10% | inh % (FDL alone) (Aureobasidium pullulans [1]; FDL 100 mg ai/l, listed as FDL): 0% and 10% | inh % (FDL alone) (Alternaria tenuissima [2]; FDL 0.2 mg ai/l, listed as FDL): 90% and 70% | inh % (FDL alone) (Alternaria tenuissima [2]; FDL 0.8 mg ai/l): 90% | inh % (FDL alone) (Aspergillus niger [3]; FDL 0.2 mg ai/l): 30% | inh % (FDL alone) (Aspergillus niger [3]; FDL 0.8 mg ai/l): 30% | inh % (FDL alone) (Aspergillus niger [3]; FDL 1.6 mg ai/l): 30% | inh % (FDL alone) (Aspergillus niger [3]; FDL 3.1 mg ai/l): 30% | inh % (FDL alone) (Aspergillus niger [3]; FDL 12.5 mg ai/l): 30% | inh % (FDL alone) (Aspergillus niger [3]; FDL 50 mg ai/l): 30% | inh % (FDL alone) (Aspergillus niger [3]; FDL 100 mg ai/l): 30% | inh % (FDL alone) (Stachybotrys chartarum [8]; FDL 0.05 mg ai/l): 10% | EC95 (Aureobasidium pullulans [4]; A. pullulans): >100 mg ai/l | MIC (Aureobasidium pullulans [4]): > 100 µg/mL | EC95 (Alternaria tenuissima [5]; A. tenuissima): 1.3 mg ai/l | MIC (Alternaria tenuissima [5]): 1.6 µg/mL (≈ 6.45 µM) | EC95 (Penicillium citrinum; P. citrinum): 0.18 mg ai/l | MIC (Penicillium citrinum): 0.2 µg/mL (≈ 0.806 µM) | EC95 (Aspergillus niger [6]; A. niger): >100 mg ai/l | MIC (Aspergillus niger [6]): > 100 µg/mL | EC95 (Stachybotrys chartarum [7]; S. chartarum): 0.18 mg ai/l | MIC (Stachybotrys chartarum [7]): 0.2 µg/mL (≈ 0.806 µM) | Concentration required for 80% Activity (Mucor indicus): 2.8 mg/L | Concentration required for 80% Activity (Aspergillus versicolor): 0.81 mg/L | Concentration required for 80% Activity (Ulocladium chartarum): 0.28 mg/L | Concentration required for 95% Activity (Alternaria alternata): 0.95 mg/L

CCCC1COC(Cn2cncn2)(c2ccc(Cl)cc2Cl)O1 (stereo not shown) [Propiconazole]
inh % (PPZ alone) (Aureobasidium pullulans [1]; PPZ 3.1 mg ai/l): 70% | inh % (PPZ alone) (Aureobasidium pullulans [1]; PPZ 12.5 mg ai/l): 70% | inh % (PPZ alone) (Alternaria tenuissima [2]; PPZ 0.8 mg ai/l): 0% | inh % (PPZ alone) (Alternaria tenuissima [2]; PPZ 1.6 mg ai/l): 10% | inh % (PPZ alone) (Alternaria tenuissima [2]; PPZ 3.1 mg ai/l): 30% | inh % (PPZ alone) (Aspergillus niger [3]; PPZ 0.05 mg ai/l): 0% | inh % (PPZ alone) (Aspergillus niger [3]; PPZ 0.2 mg ai/l): 0% | inh % (PPZ alone) (Aspergillus niger [3]; PPZ 0.8 mg ai/l): 0% | inh % (PPZ alone) (Aspergillus niger [3]; PPZ 1.6 mg ai/l): 30% | EC95 (Aureobasidium pullulans [4]; A. pullulans): 36 mg ai/l | MIC (Aureobasidium pullulans [4]; [11]): 50 µg/mL (≈ 146 µM) | EC95 (Alternaria tenuissima [5]; A. tenuissima): 10.1 mg ai/l | MIC (Alternaria tenuissima [5]; [12]): 12.5 µg/mL (≈ 36.5 µM) | EC95 (Penicillium citrinum; P. citrinum): 1.5 mg ai/l | MIC (Penicillium citrinum; [13]): 1.6 µg/mL (≈ 4.68 µM) | EC95 (Aspergillus niger [6]; A. niger): 3 mg ai/l | MIC (Aspergillus niger [6]; [14]): 3.1 µg/mL (≈ 9.06 µM) | EC95 (Stachybotrys chartarum [7]; S. chartarum): >100 mg ai/l | MIC (Stachybotrys chartarum [7]; [15]): > 100 µg/mL | Concentration required for 80% Activity (Mucor indicus): 61 mg/L | Concentration required for 80% Activity (Aspergillus versicolor): 9.2 mg/L | Concentration required for 80% Activity (Ulocladium chartarum): 4.2 mg/L | Concentration required for 95% Activity (Alternaria alternata): 16 mg/L

c1ccc2[nH]c(-c3cscn3)nc2c1 [Thiabendazole]
Concentration required for 80% Activity (Mucor indicus): No effect | Concentration required for 80% Activity (Aspergillus versicolor): 6.9 mg/L | Concentration required for 80% Activity (Ulocladium chartarum): No effect | Concentration required for 95% Activity (Alternaria alternata): >5000 mg/L
